The source of these data is US20230144619A1, “SALT OF ARYLAMINOPURINE DERIVATIVE, PREPARATION METHOD THEREFOR AND USE THEREOF” (CSPC Zhongqi Pharmaceutical Technology (Shijiazhuang) Co., …, priority 2020, published 2023).

Common to all, as to type: physicochemical
One data set can be described thus: Hygroscopicity test. The note with it: 25±1° C., relative humidity 80%±2% (DVS, 80% RH). As for the experimental part: Detection instrument: XPE105DR
(1) A dry stoppered glass weighing bottle was taken, placed in a suitable constant-temperature desiccator at 25° C. 1° C. (with a saturated solution of ammonium chloride or ammonium sulfate in the lower part) or an artificial climate box (with the set temperature of 25° C.±1° C. and the relative humidity of 80%±2%) on the day before the test, and precisely weighed and recorded as the weight (m1).
(2) An appropriate amount of the test sample was taken and spread in the above-mentioned weighing bottle. The thickness of the test sample was generally about 1 mm, and the bottle was precisely weighed and recorded as the weight (m2).
(3) The stopper was removed to open the weighing bottle, and the opened weighing bottle and the stopper were placed under the above-mentioned constant temperature and humidity conditions for 24 hours.
(4) The opened weighing bottle was stoppered, precisely weighed, and recorded as the weight (m3).
Percentage increase in mass=(m3−m2)/(m2−m1)×100%
(5) The description of hygroscopicity characteristics and the definition for the weight gain due to hygroscopicity:
Deliquescence: Sufficient water was absorbed to form a liquid.
Very hygroscopic: the weight gain due to hygroscopicity was not less than 15%.
Hygroscopic: the weight gain due to hygroscopicity was less than 15% but not less than 2%.
Slightly hygroscopic: the weight gain due to hygroscopicity was less than 2% but not less than 0.2%.
Not or nearly not hygroscopic: the weight gain due to hygroscopicity was less than 0.2%.
Appropriate amounts of the salt samples obtained from Examples 1 and 3-17 were subjected to the hygroscopicity test at a temperature of 25±1° C. under a relative humidity of 80%±2%, and the results were as follows: […]

The next data set in a line: DSC and TGA tests. The note with it: onset temperature. As for the experimental part:
6. Differential Scanning Calorimetry-Thermogravimetric Analysis (DSC-TGA)
Detection instrument: NETZSCH STA 449F3
Temperature range: 20° C.-350° C.;
Heating rate: 10.0 (K/min);
7. Differential Scanning Calorimetry (DSC)
Detection instrument: NETZSCH DSC 214 Polyma
Temperature range: 20° C.-250° C.;
Heating rate: 5.0 (K/min);
8. Thermogravimetric Analysis (TGA)
Detection instrument: METTLER and SDT Q600
The salts obtained in Examples 1 and 3-17 and the compound represented by Formula 1 were subjected to the DSC and TGA tests in media, and the test results were shown in the following table: […]

The nature of data set [1]: Solubility test (UV spectrophotometer, saturated solutions shaken 24 hours). The note with it: 25° C.; for Solubility, Water medium pH = 1.2: pH=1.2 hydrochloric acid solution; for Solubility, Water medium pH = 4.5: pH=4.5 phosphate buffer solution; for Solubility, Water medium pH = 6.8: pH=6.8 phosphate buffer solution; for Solubility, Water medium: water (purified water). As for the experimental part: Detection instrument: Ultraviolet spectrophotometer/Evolution 300
The following solutions with pH=1.2, pH=4.5, and pH=6.8 and water were used as the solvent, and the solvent preparation process was as follows:
(1) pH=1.2 hydrochloric acid solution: To 7.65 mL of hydrochloric acid was added 1000 mL of water, and the mixture was shaken uniformly to obtain the target solution.
(2) pH=4.5 phosphate buffer solution: 6.8 g of potassium dihydrogen phosphate was taken and diluted with water to 1000 mL, and the mixture was shaken uniformly to obtain the target solution.
(2) pH=6.8 phosphate buffer solution: 6.8 g of potassium dihydrogen phosphate and 0.896 g of sodium hydroxide were taken and diluted with water to 1000 mL, and the mixture was shaken uniformly to obtain the target solution.
(4) Water: purified water
Test tubes with stopper were taken, and 10 mL of dissolution media at various pH values were precisely added to the test tubes respectively, and excessive stock drugs were added until supersaturated solutions were formed. The adding amounts were recorded. The solutions were shaken uniformly, sealed with stoppers, and shaken for 24 hours in a shaker. 2 mL of solutions were taken out at different time points respectively, and centrifuged. The resulting supernatants were taken, filtered, and the subsequent filtrates were taken for later use.
The above-mentioned saturated solutions in different solvents were taken, and solvents were added to dilute the solutions to certain volumes. The absorbances were measured at a wavelength of 287 nm.
Preparation of a solution of the reference substance: an appropriate amount of the compound represented by Formula 1 was taken as the reference substance, and precisely weighed. A solvent was added to dissolve and dilute the reference compound to produce a solution containing about 10 μg of the compound represented by Formula 1 per 1 mL. The absorbance was measured at a wavelength of 287 nm to calculate the solubility.
The salts obtained in Examples 1 and 3-17 and the compound represented by Formula 1 were subjected to the solubility test in media and the test results were shown in the following table: […]

Data set [2] is described as follows: Accelerated stability test. As for the experimental part:
Appropriate amounts of the salt samples obtained from Examples 1 and 3-17 were placed at a temperature of 25±2° C. under 0%±5% RH in an open environment for 10 days and at a temperature of 40±2° C. under 75%±5% RH in an open environment for 10 days respectively to perform the accelerated tests, and the results were as follows: […]

Setting [3] is: Placed at 25 ± 2° C. under 0% ± 5% RH in an open environment for 10 days.
The mark [4] stands for this setting: Placed at 40 ± 2° C. under 75% ± 5% RH in an open environment for 10 days.

In brackets after ≈: the same amount, converted by molar mass.

In the case of `CC(C)n1c(Nc2cccnc2)nc2cnc(Nc3ccc(N4CCN(C)CC4)cc3)nc21` [Example 3], in “Hygroscopicity test”, the Hygroscopicity entry is on record as “Hygroscopic (the weight gain due to hygroscopicity was less than 15% but not less than 2%.)” and the “Weight gain due to hygroscopicity” value worked out at 5.86%. Further, in the data set “DSC and TGA tests”, the “TGA: starting to lose the acid” value is ~120 °C (see FIG. 21) and the “TGA: starting to lose the water of crystallization” value (“TGA: starting to lose the water” below) is “crystallization at about 40° C.;”. Also, in data set [1], the “Solubility, Water medium pH = 1.2” value was 360.00 mg/mL; the “Solubility, Water medium pH = 4.5” value is listed as 207.53 mg/mL; the “Solubility, Water medium pH = 6.8” value was 153.30 mg/mL; the “Solubility, Water medium” value came out at 212.73 mg/mL (≈ 480 mM).
`CC(C)n1c(Nc2cccnc2)nc2cnc(Nc3ccc(N4CCN(C)CC4)cc3)nc21` [Example 4]: in “Hygroscopicity test”, the Hygroscopicity entry is “Hygroscopic (the weight gain due to hygroscopicity was less than 15% but not less than 2%.)” and the “Weight gain due to hygroscopicity” value is on record as 6.94%. In the data set “DSC and TGA tests”, the “TGA: starting to lose the acid” value is ~220 °C (see FIG. 23) and the “TGA: starting to lose the water” value was “crystallization at about 40° C.;”. Further, in data set [1], the “Solubility, Water medium pH = 1.2” value is greater than 1000 mg/mL; the “Solubility, Water medium pH = 4.5” value was greater than 1000 mg/mL; the “Solubility, Water medium pH = 6.8” value is reported as greater than 1000 mg/mL; the “Solubility, Water medium” value is greater than 1000 mg/mL. In addition, in data set [2] (setting [3]), the Appearance result is reported as “Liquid”. Also, the Appearance entry in data set [2] (setting [4]) is reported as “Liquid”.
`CC(C)n1c(Nc2cccnc2)nc2cnc(Nc3ccc(N4CCN(C)CC4)cc3)nc21` [Example 5]: in “Hygroscopicity test”, the Hygroscopicity result is on record as “Very hygroscopic (the weight gain due to hygroscopicity was not less than 15%.)” and the “Weight gain due to hygroscopicity” value is 19.62%. For the same compound, in “DSC and TGA tests”, the “TGA: starting to lose the acid” value was ~190 °C (see FIG. 25) and the “TGA: starting to lose the water” value was “crystallization at about 40° C.;”. For the same compound, in data set [1], the “Solubility, Water medium pH = 1.2” value is listed as greater than 1000 mg/mL; the “Solubility, Water medium pH = 4.5” value is greater than 1000 mg/mL; the “Solubility, Water medium pH = 6.8” value is greater than 1000 mg/mL; the “Solubility, Water medium” value is listed as greater than 1000 mg/mL. In data set [2] (setting [3]), the Appearance result is “Liquid”. For the same compound, in data set [2] (setting [4]), the Appearance entry is “Liquid”.
As for `CC(C)n1c(Nc2cccnc2)nc2cnc(Nc3ccc(N4CCN(C)CC4)cc3)nc21` [Example 6], in “Hygroscopicity test”, the Hygroscopicity entry is on record as “Slightly hygroscopic (the weight gain due to hygroscopicity was less than 2% but not less than 0.2%.)” and the “Weight gain due to hygroscopicity” value came out at 1.02%. Besides, in “DSC and TGA tests”, the “TGA: starting to lose the acid” value is ~170 °C (see FIG. 26) and the “TGA: starting to lose the water” value is “crystallization at about 40° C.;”. Besides, in data set [1], the “Solubility, Water medium pH = 1.2” value came out at 54.70 mg/mL; the “Solubility, Water medium pH = 4.5” value was 14.59 mg/mL; the “Solubility, Water medium pH = 6.8” value came to 12.05 mg/mL; the “Solubility, Water medium” value was determined as 9.68 mg/mL (≈ 21.8 mM). Further, the Appearance entry in data set [2] (setting [3]) was “Yellow solid”. Besides, the Appearance entry in data set [2] (setting [4]) was “Yellow solid”.
In the case of `CC(C)n1c(Nc2cccnc2)nc2cnc(Nc3ccc(N4CCN(C)CC4)cc3)nc21` [Example 8], in the data set “Hygroscopicity test”, the Hygroscopicity entry is recorded as “Slightly hygroscopic (the weight gain due to hygroscopicity was less than 2% but not less than 0.2%.)” and the “Weight gain due to hygroscopicity” value turned out to be 1.43%. In addition, in “DSC and TGA tests”, the “TGA: starting to lose the acid” value is ~180 °C (see FIG. 28) and the “TGA: starting to lose the water” value is recorded as “crystallization at about 40° C.;”. Also, in data set [1], the “Solubility, Water medium pH = 1.2” value is recorded as 36.41 mg/mL; the “Solubility, Water medium pH = 4.5” value is 14.36 mg/mL; the “Solubility, Water medium pH = 6.8” value was 10.46 mg/mL; the “Solubility, Water medium” value is recorded as 9.74 mg/mL (≈ 22 mM).
As to `CC(C)n1c(Nc2cccnc2)nc2cnc(Nc3ccc(N4CCN(C)CC4)cc3)nc21` [Example 9], in the data set “Hygroscopicity test”, the Hygroscopicity entry is “Slightly hygroscopic (the weight gain due to hygroscopicity was less than 2% but not less than 0.2%.)” and the “Weight gain due to hygroscopicity” value is 1.43%. In addition, in the data set “DSC and TGA tests”, the “TGA: starting to lose the acid” value was ~170 °C (see FIG. 29) and the “TGA: starting to lose the water” value is reported as “crystallization at about 40° C.;”. In addition, in data set [1], the “Solubility, Water medium pH = 1.2” value was found to be 44.51 mg/mL; the “Solubility, Water medium pH = 4.5” value was 15.17 mg/mL; the “Solubility, Water medium pH = 6.8” value was 11.48 mg/mL; the “Solubility, Water medium” value amounted to 10.50 mg/mL (≈ 23.7 mM).
Turning to `CC(C)n1c(Nc2cccnc2)nc2cnc(Nc3ccc(N4CCN(C)CC4)cc3)nc21` [Example 12], the “Weight gain due to hygroscopicity” value in the data set “Hygroscopicity test” is given as 0.11%. In the data set “DSC and TGA tests”, the “TGA: starting to lose the acid” value is ~140 °C (see FIG. 33) and the “TGA: starting to lose the water” value is reported as “crystallization at about 40° C.;”. In data set [1], the “Solubility, Water medium pH = 1.2” value amounted to 42.39 mg/mL; the “Solubility, Water medium pH = 4.5” value came out at 2.70 mg/mL; the “Solubility, Water medium pH = 6.8” value was 0.14 mg/mL; the “Solubility, Water medium” value amounted to 3.09 mg/mL (≈ 6.97 mM).
Turning to `CC(C)n1c(Nc2cccnc2)nc2cnc(Nc3ccc(N4CCN(C)CC4)cc3)nc21` [Example 13], the “Weight gain due to hygroscopicity” value in “Hygroscopicity test” was determined as 0.05%. Also, in “DSC and TGA tests”, the “TGA: starting to lose the acid” value is ~140 °C (see FIG. 35) and the “TGA: starting to lose the water” value is recorded as “crystallization at about 40° C.;”. Also, in data set [1], the “Solubility, Water medium pH = 1.2” value came out at 59.71 mg/mL; the “Solubility, Water medium pH = 4.5” value turned out to be 8.42 mg/mL; the “Solubility, Water medium pH = 6.8” value is recorded as 1.12 mg/mL; the “Solubility, Water medium” value was 5.06 mg/mL (≈ 11.4 mM).
Take `CC(C)n1c(Nc2cccnc2)nc2cnc(Nc3ccc(N4CCN(C)CC4)cc3)nc21` [Example 16]: in “Hygroscopicity test”, the Hygroscopicity entry is on record as “Hygroscopic (the weight gain due to hygroscopicity was less than 15% but not less than 2%.)” and the “Weight gain due to hygroscopicity” value was 7.67%. Moreover, in “DSC and TGA tests”, the “TGA: starting to lose the acid” value was ~240 °C (See FIG. 40) and the “TGA: starting to lose the water” value is recorded as “crystallization at about 40° C.;”. Further, in data set [1], the “Solubility, Water medium pH = 1.2” value turned out to be 129.50 mg/mL; the “Solubility, Water medium pH = 4.5” value was 90.03 mg/mL; the “Solubility, Water medium pH = 6.8” value was found to be 90.09 mg/mL; the “Solubility, Water medium” value came out at 76.59 mg/mL (≈ 173 mM).
As for `CC(C)n1c(Nc2cccnc2)nc2cnc(Nc3ccc(N4CCN(C)CC4)cc3)nc21` [Example 17], in the data set “Hygroscopicity test”, the Hygroscopicity result is “Slightly hygroscopic (the weight gain due to hygroscopicity was less than 2% but not less than 0.2%.)” and the “Weight gain due to hygroscopicity” value is 1.34%. In the data set “DSC and TGA tests”, the “TGA: starting to lose the acid” value is ~210 °C (see FIG. 41) and the “TGA: starting to lose the water” value was “crystallization at about 40° C.;”. In addition, in data set [1], the “Solubility, Water medium pH = 1.2” value is 33.29 mg/mL; the “Solubility, Water medium pH = 4.5” value amounted to 21.64 mg/mL; the “Solubility, Water medium pH = 6.8” value is listed as 31.39 mg/mL; the “Solubility, Water medium” value was 16.51 mg/mL (≈ 37.2 mM).
